This note sets out measurements from paper PMC8205030, “Methoxy and bromo scans on N-(5-methoxyphenyl) methoxybenzenesulphonamides reveal potent cytotoxic compounds, especially against the human breast adenocarcinoma MCF7 cell line” (Journal of Enzyme Inhibition and Medicinal Chemistry, 2021).

Data set [1] deals with MCF7 (human breast carcinoma) cells. The data set is described as follows: Cell growth assay (XTT), MCF7. In kind it is cell-based. Particulars: for IC50: Homo sapiens, MCF7, 72 h drug exposure, XTT, read-out: Antiproliferative activity IC50 MCF7. The protocol: (§1) The presence of mycoplasma was routinely checked with MycoAlert kit (Lonza-Cambrex) and only mycoplasma-free cells were used in the experiments. Tumour cell lines were kindly provided by Dr Faustino Mollinedo from Centro de Investigaciones Biológicas Margarita Salas, Madrid, Spain. To determine cell growth, cells in exponential growth phase were seeded (100 µL/well in 96-well plates) with appropriate cell concentration (1.5 × 10^4 cells/mL for MCF7, HeLa and HEK-293 and 3 × 10^4 cells/mL for HT-29) in complete DMEM or RPMI 1640 medium (see above) at 37 °C and 5% CO2 atmosphere. After 24 h incubation, to allow cells to attach to the plates, all compounds were added at 1 µM concentration (10 µL/well in 96-well plates) and the effect on the proliferation was evaluated 72 h post-treatment. Compounds showing antiproliferative effects at tested concentration were selected for IC50 calculation (50% inhibitory concentration compared to the untreated controls) from 10^−5 to 10^−10 M concentration. Nonlinear curves fitting the experimental data were carried out for each compound. […] A freshly prepared mixture solution of XTT labelling reagent with 0.02% (v/v) PMS (N-methyl-dibenzopyrazine methyl sulfate) electron coupling reagent was added to cells (50 µL/well in 96-well plates, the total volume of 160 µL/well) and were incubated during the corresponding time according to each cell line (4 h for MCF7 and HeLa and 6 h for HT-29 and HEK-293) in a humidified atmosphere (37 °C, 5% CO2). The absorbance of the formazan product generated was measured at a test wavelength of 450 nm using a multi-well plate reader (Ultra Evolution, Tecan, Männedorf, Suiza). Compounds were dissolved in DMSO and the final solvent concentrations never exceeded 0.5% (v/v). The control wells included treated cells with 0.5% (v/v) DMSO and the positive control. 10 µM verapamil was included as a control for the HT-29 cell line. Measurements were performed in triplicate, and each experiment was repeated three times.

The subject of data set [2] is HeLa (human cervical carcinoma) cells. Put plainly: Cell growth assay (XTT), HeLa. In kind it is cell-based. Particulars: 72 h drug exposure, read-out: Antiproliferative activity IC50 HeLa. The protocol:
as §1
(In general: Tetrazolium assays rely on reduction of a dye to a coloured formazan, in cell work by metabolically active cells.)

In data set [3] the test system is HT-29 (human colon carcinoma) cells. Put plainly: Cell growth assay (XTT), HT-29, alone or with verapamil. In kind it is cell-based. The protocol:
as §1, with “Compounds showing antiproliferative effects at tested concentration were selected for IC50 calculation (50% inhibitory concentration compared to the untreated controls) from 10^−5 to 10^−10 M concentration.” left out

The target of data set [4] is T1, microtubular protein isolated from calf brain (Bos taurus, UniProt P81947+Q6B856).
T1 construct: isolated from calf brain according to the modified Shelanski method; from tissue; host or cells: calf brain
T1 sequence (Q6B856 whole entry): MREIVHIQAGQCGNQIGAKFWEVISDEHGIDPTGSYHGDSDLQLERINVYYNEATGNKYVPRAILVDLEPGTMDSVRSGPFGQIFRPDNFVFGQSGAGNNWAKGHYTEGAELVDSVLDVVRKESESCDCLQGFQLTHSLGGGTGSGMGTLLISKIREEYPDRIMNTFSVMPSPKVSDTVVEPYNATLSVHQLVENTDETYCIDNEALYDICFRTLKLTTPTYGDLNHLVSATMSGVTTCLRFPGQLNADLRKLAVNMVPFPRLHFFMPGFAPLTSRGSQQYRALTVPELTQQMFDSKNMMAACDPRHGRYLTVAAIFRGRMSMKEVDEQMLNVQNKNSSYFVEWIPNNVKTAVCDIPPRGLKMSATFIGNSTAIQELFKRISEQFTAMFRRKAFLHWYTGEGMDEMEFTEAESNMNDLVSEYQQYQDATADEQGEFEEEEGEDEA
T1 sequence (P81947 whole entry): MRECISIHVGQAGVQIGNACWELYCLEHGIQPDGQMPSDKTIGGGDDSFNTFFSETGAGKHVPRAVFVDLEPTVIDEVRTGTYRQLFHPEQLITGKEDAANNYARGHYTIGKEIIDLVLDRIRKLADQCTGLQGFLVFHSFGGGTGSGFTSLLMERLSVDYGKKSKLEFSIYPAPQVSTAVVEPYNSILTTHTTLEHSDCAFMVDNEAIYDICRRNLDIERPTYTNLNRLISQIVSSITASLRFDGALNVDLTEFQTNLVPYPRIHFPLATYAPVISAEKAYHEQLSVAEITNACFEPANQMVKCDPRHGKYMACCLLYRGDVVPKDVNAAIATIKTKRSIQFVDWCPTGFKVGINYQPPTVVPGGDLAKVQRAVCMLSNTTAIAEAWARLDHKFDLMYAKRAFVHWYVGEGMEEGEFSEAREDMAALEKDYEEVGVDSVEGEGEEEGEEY
The data set is described as follows: Inhibition of tubulin polymerisation (turbidity). In kind it is biochemical. Particulars: for TPI % 10 µM: 10 µM compound, 1.5 mg/mL microtubular protein; for IC50: in vitro tubulin polymerisation inhibition, read-out: TPI IC50. The protocol:
Microtubular protein was isolated from calf brain according to the modified Shelanski method[23]^,[24] by two cycles of temperature-dependent assembly/disassembly and stored at −80 °C. Before each use, protein concentration is determined by Bradford method[25] taking BSA as standard. Tubulin polymerisation was monitored using a Helios α spectrophotometer by measuring the increase in turbidity at 450 nm, caused by a shift from 4 °C to 37 °C, which allows the in vitro microtubular protein to depolymerise and to polymerise, respectively. The assay was carried out in quartz cuvettes containing 1.5 mg/mL microtubular protein and the ligand (except for control cuvette with only DMSO at the same concentration) in a mixture of 0.1 M MES buffer, 1 mM EGTA, 1 mM MgCl2, 1 mM β-ME, and 1.5 mM GTP at pH 6.7 (final volume 500 µL). Cuvettes were preincubated at 20 °C for 30 min, to allow ligand binding to tubulin, and subsequently cooled on ice for 10 min. Then, the experiment starts at 4 °C to establish the initial baseline. The assembly process was initiated by a temperature shift to 37 °C and the turbidity produced by tubulin polymerisation can be measured by an absorbance increase. After reaching a stable plateau, the temperature was switched back to 4 °C to return to the initial absorption values (to confirm the reversible nature of the monitored process and to determine whether or not the microtubular protein has stabilized). The difference in amplitude between the stable plateau and the initial baseline of the curves was taken as the degree of tubulin polymerisation for each experiment. […] All compounds were tested at 10 µM concentration. IC50 values were calculated for compounds that inhibit tubulin polymerisation more than 50% at 10 µM. […] All the measurements were carried out in at least two independent experiments using microtubular protein from different preparations.

Where [5] appears, read: 72 h, in the presence of Pgp/MDR1 inhibitor verapamil (10 µM), read-out: Antiproliferative activity IC50 HT-29 Verap.
The mark [6] stands for this setting: Homo sapiens, HT-29, 72 h drug exposure, XTT, read-out: Antiproliferative activity IC50 HT-29.

Where two headings read alike, the source gives them in different places.

For the compound `COc1ccc(S(=O)(=O)N(C)c2cc(OC)c(Br)c(OC)c2)cc1` [Compound 8a, N-(4-bromo-3,5-dimethoxyphenyl)-4-methoxy-N-methylbenzenesulphonamide], the concentration for half-maximal inhibition (IC50) in data set [1] was 99 nM; in data set [2], 497 nM; in data set [3] (setting [5]) it was 293 nM; in data set [3] (setting [6]), 495 nM; in data set [4] it was greater than 10000 nM. In data set [1] (ratio of IC50 values), the “Fold more potent against MCF7 than against HeLa” value is 4–7 fold. The “TPI % 10 µM” value in data set [4] was 10%.

For the compound `COc1ccc(S(=O)(=O)N(Cc2ccccc2)c2cc(OC)cc(OC)c2Br)cc1` [Compound 10b, N-benzyl-N-(2-bromo-3,5-dimethoxyphenyl)-4-methoxybenzenesulphonamide], the IC50 is greater than 1000 nM in data set [1], greater than 1000 nM in data set [2], greater than 1000 nM in data set [3] (setting [6]) and greater than 10000 nM in data set [4]. In addition, in data set [4], the “TPI % 10 µM” value is recorded as 0%.

Compound `COc1ccc(S(=O)(=O)N(Cc2ccccc2)c2cc(OC)c(OC)cc2Br)cc1` [Compound 18, N-benzyl-N-(2-bromo-4,5-dimethoxyphenyl)-4-methoxybenzenesulphonamide] gave a melting point of 114 to 120 °C. For the same compound, in data set [1], the IC50 was greater than 1000 nM. The IC50 in data set [2] is greater than 1000 nM. Besides, the IC50 in data set [3] (setting [6]) is greater than 1000 nM. In addition, in data set [4], the “TPI % 10 µM” value was 38% and the IC50 was greater than 10000 nM.

For the compound `CCOC(=O)N(c1cc(OC)c(Br)cc1OC)S(=O)(=O)c1ccc(OC)cc1` [Compound 27, Ethyl (4-bromo-2,5-dimethoxyphenyl)((4-methoxyphenyl)sulphonyl)carbamate], the IC50 is 220 nM in data set [1]; 377 nM in data set [2]; 170 nM in data set [3] (setting [5]); 525 nM in data set [3] (setting [6]); greater than 10000 nM in data set [4]. The “Difference in HT-29 IC50 values from co-treatment with MDR inhibitor” value in data set [3] (without vs with verapamil 10 µM) was “higher than 3 fold”. Also, the “TPI % 10 µM” value in data set [4] stood at 44%.

Regarding `CCOC(=O)CN(c1cc(OC)c(OC)cc1OC)S(=O)(=O)c1ccc(OC)cc1` [Compound 36, Ethyl N-((4-methoxyphenyl)sulphonyl)-N-(2,4,5-trimethoxyphenyl)glycinate], the melting point was in the range of 127 to 132 °C. Besides, the IC50 in data set [1] is greater than 1000 nM. The IC50 in data set [2] is greater than 1000 nM. Also, the IC50 in data set [3] (setting [6]) was greater than 1000 nM. In data set [4], the “TPI % 10 µM” value is listed as 0% and the IC50 is greater than 10000 nM.

Take `COc1ccc(S(=O)(=O)Nc2cccnc2Nc2ccc(O)cc2)cc1` [ABT-751, reference compound]: the IC50 turned out to be 180 nM in data set [1], 388 nM in data set [2] and 4400 nM in data set [4]. Also, the “TPI % 10 µM” value in data set [4] is reported as 69%.

For `CCN(c1cc(OC)c(Br)c(OC)c1)S(=O)(=O)c1ccc(OC)cc1` [Compound 9a, N-(4-bromo-3,5-dimethoxyphenyl)-N-ethyl-4-methoxybenzenesulphonamide], the IC50 in data set [2] was 417 nM; in data set [3] (setting [6]), 610 nM; in data set [4], greater than 10000 nM. Also, in data set [4], the “TPI % 10 µM” value turned out to be 0%.

For `COc1ccc(S(=O)(=O)N(Cc2ccccc2)c2cc(OC)c(Br)c(OC)c2Br)cc1` [Compound 10c, N-benzyl-N-(2,4-dibromo-3,5-dimethoxyphenyl)-4-methoxybenzenesulphonamide], the IC50 was greater than 1000 nM in data set [1], greater than 1000 nM in data set [2], greater than 1000 nM in data set [3] (setting [6]) and greater than 10000 nM in data set [4]. The “TPI % 10 µM” value in data set [4] came out at 0%.

For `CCOC(=O)CN(c1cc(OC)c(Br)cc1OC)S(=O)(=O)c1ccc(OC)cc1` [Compound 26, Ethyl N-(4-bromo-2,5-dimethoxyphenyl)-N-((4-methoxyphenyl)sulphonyl)glycinate], the IC50 is 700 nM in data set [1]; 577 nM in data set [2]; 867 nM in data set [3] (setting [5]); 2100 nM in data set [3] (setting [6]); greater than 10000 nM in data set [4]. The “TPI % 10 µM” value in data set [4] is 28%.

As to `CCOC(=O)CN(c1cc(OC)cc(OC)c1)S(=O)(=O)c1ccc(OC)cc1` [Compound 5, Ethyl N-(3,5-dimethoxyphenyl)-N-((4-methoxyphenyl)sulphonyl)glycinate], the IC50 in data set [1] is greater than 1000 nM; in data set [2] it was greater than 1000 nM; in data set [3] (setting [6]), greater than 1000 nM; in data set [4], greater than 10000 nM. Besides, the “TPI % 10 µM” value in data set [4] was 0%.

Take `COc1ccc(S(=O)(=O)Nc2cc(OC)c(OC)c(OC)c2)cc1` [TMP[41], N-(3,4,5-trimethoxyphenyl)-4-methoxyphenylsulphonamide, reference compound]: the values for the IC50 in data set [2] and in data set [3] (setting [5]) were 240 nM and 975 nM, respectively.

`COc1ccc(S(=O)(=O)N(Cc2ccccc2)c2cc(OC)c(OC)cc2OC)cc1` [Compound 37, N-benzyl-4-methoxy-N-(2,4,5-trimethoxyphenyl)benzenesulphonamide] came in with a melting point of 130 to 139 °C. In addition, the IC50 in data set [2] is 833 nM. The IC50 in data set [3] (setting [6]) is 1250 nM. In data set [4], the “TPI % 10 µM” value was 7% and the 50% inhibitory concentration (IC50) is greater than 10000 nM.

As to `COc1ccc(S(=O)(=O)N(Cc2ccccc2)c2cc(OC)c(Br)c(OC)c2)cc1` [Compound 10a, N-benzyl-N-(4-bromo-3,5-dimethoxyphenyl)-4-methoxybenzenesulphonamide], the half-maximal inhibitory concentration (IC50) was 335 nM in data set [1]; 310 nM in data set [2]; 533 nM in data set [3] (setting [5]); 450 nM in data set [3] (setting [6]); greater than 10000 nM in data set [4]. In addition, in data set [4], the “TPI % 10 µM” value was 0%.

For `COc1ccc(S(=O)(=O)N(CC2CO2)c2cc(OC)c(Br)cc2OC)cc1` (stereo not drawn) [Compound 28, N-(4-bromo-2,5-dimethoxyphenyl)-4-methoxy-N-(oxiran-2-ylmethyl)benzenesulphonamide], the IC50 is 495 nM in data set [2], 860 nM in data set [3] (setting [6]) and greater than 10000 nM in data set [4]. Further, the “TPI % 10 µM” value in data set [4] is 32%.

The term IC50 denotes the point on the concentration scale where inhibition reaches its midpoint. Broadly, the melting point is the temperature of the solid-liquid transition.
